Results reported in ChEMBL document CHEMBL5052830, “Foxm1 inhibitor compositions and methods of using the same” (2021).
Blank lines part the entries; values can stand above or below the compound they belong to. Calls of active or inactive are those of the source. The rule behind the calls is not given here.

Experiments:
[1] = Half-life in female CD-1 mouse at 40 mg/kg, sc administered as single dose and measured by LC-MS/MS analysis; type: ADME, organism-based; settings: in vivo
DT-22 [2] = assay: Antitumor activity in human DT-22-Luc cells xenografted female NSG mouse assessed as reduction in tumor growth at 2 to 6 mg/kg, sc; type: functional, organism-based; settings: dose 2-6 mg/kg
[3] = Toxicity in human DT-22-Luc cells xenografted female NSG mouse assessed as as effect on body weight at 2 to 6 mg/kg, sc; type: organism-based; settings: in vivo, dose 2-6 mg/kg
DT-22 [4] = assay: Antitumor activity in human DT-22 cells xenografted NSG mouse assessed as reduction in tumor growth at 40 mg/kg, sc administered daily for 4 days followed by 20 mg/kg every third day until day 13 and followed by 10 mg/kg every third day; type: functional, organism-based; settings: time 4.0 day
[5] = AUC (0 to 48 hrs) in female CD-1 mouse at 40 mg/kg, sc administered as single dose and measured by LC-MS/MS analysis; type: ADME, organism-based; design: time < 48 hr, route subcutaneous, dose 40 mg/kg; settings: in vivo
[6] = Half-life in female CD-1 mouse at 20 mg/kg, po administered as single dose and measured by LC-MS/MS analysis; type: ADME, organism-based; settings: in vivo
[7] = molecular target: T1, Forkhead box protein M1 (Homo sapiens) (UniProt Q08050); assay: Inhibition of FOXM1 in human ER-negative DT-22 cells at 5 uM assessed as reduction in CCNB1 expression measured by qRT-PCR method; type: cell-based
T1 sequence (whole entry): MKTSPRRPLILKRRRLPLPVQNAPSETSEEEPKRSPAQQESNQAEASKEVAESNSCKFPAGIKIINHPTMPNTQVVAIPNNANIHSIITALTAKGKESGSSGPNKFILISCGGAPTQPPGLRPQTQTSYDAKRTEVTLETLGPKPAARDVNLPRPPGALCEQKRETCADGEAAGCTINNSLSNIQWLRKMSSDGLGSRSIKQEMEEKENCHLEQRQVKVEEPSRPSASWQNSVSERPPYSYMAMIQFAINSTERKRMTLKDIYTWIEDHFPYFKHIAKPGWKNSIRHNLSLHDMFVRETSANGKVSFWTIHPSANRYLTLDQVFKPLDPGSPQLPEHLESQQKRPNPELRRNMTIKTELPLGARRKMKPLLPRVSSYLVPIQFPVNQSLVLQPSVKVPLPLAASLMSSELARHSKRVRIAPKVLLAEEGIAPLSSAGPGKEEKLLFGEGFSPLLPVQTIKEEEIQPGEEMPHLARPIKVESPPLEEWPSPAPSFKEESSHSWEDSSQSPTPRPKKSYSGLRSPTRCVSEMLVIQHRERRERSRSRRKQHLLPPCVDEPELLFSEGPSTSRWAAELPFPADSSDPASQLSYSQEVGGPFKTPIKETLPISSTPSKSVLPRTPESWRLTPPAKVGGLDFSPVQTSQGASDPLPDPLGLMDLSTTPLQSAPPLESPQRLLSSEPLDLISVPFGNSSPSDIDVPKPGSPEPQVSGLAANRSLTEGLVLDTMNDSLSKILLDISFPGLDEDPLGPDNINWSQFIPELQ

[8] = molecular target: T1, Forkhead box protein M1 (Homo sapiens); assay: Inhibition of FOXM1 in human ER-positive MCF7 cells at 5 uM assessed as reduction in FOXM1C expression measured by qRT-PCR method; type: cell-based
[9] = molecular target: T1, Forkhead box protein M1 (Homo sapiens); assay: Inhibition of FOXM1 in human ER-negative DT-22 cells at 5 uM assessed as reduction in FOXM1C expression measured by qRT-PCR method; type: cell-based
[10] = molecular target: T1, Forkhead box protein M1 (Homo sapiens); assay: Inhibition of FOXM1 in human ER-positive MCF7 cells at 5 uM assessed as reduction in PLK1 expression measured by qRT-PCR method; type: cell-based
[11] = molecular target: T1, Forkhead box protein M1 (Homo sapiens); assay: Inhibition of FOXM1 in human ER-negative DT-22 cells at 5 uM assessed as reduction in AURKB expression measured by qRT-PCR method; type: cell-based
[12] = molecular target: T1, Forkhead box protein M1 (Homo sapiens); assay: Inhibition of FOXM1 in human ER-positive MCF7 cells at 5 uM assessed as reduction in AURKB expression measured by qRT-PCR method; type: cell-based
MCF7 = assay: Antitumor activity in human MCF7 cells xenografted ovariectomized NSG mouse assessed as reduction in tumor growth at 100 mg/kg, sc administered daily; type: functional, organism-based
[13] = molecular target: T1, Forkhead box protein M1 (Homo sapiens); assay: Inhibition of FOXM1 in human ER-positive MCF7 cells at 5 uM assessed as increase in ATF3 expression measured by qRT-PCR method; type: cell-based
[14] = molecular target: T1, Forkhead box protein M1 (Homo sapiens); assay: Inhibition of FOXM1 in human ER-negative DT-22 cells at 5 uM assessed as reduction in PLK1 expression measured by qRT-PCR method; type: cell-based
[15] = molecular target: T1, Forkhead box protein M1 (Homo sapiens); assay: Inhibition of FOXM1 in human ER-positive MCF7 cells at 5 uM assessed as reduction in CCNB1 expression measured by qRT-PCR method; type: cell-based
[16] = molecular target: T1, Forkhead box protein M1 (Homo sapiens); assay: Inhibition of FOXM1 in human ER-negative DT-22 cells at 5 uM assessed as increase in ATF3 expression measured by qRT-PCR method; type: cell-based
DT-22 [17] = assay: Antitumor activity in human DT-22 cells xenografted NSG mouse assessed as reduction in tumor growth at 100 mg/kg, po administered daily for 7 days; type: functional, organism-based; settings: time 7.0 day
[18] = Toxicity in human DT-22-Luc cells xenografted female NSG mouse assessed as as effect on body weight at 20 mg/kg, sc administered daily until day 20 and followed by 10 mg/kg every other day; type: organism-based; settings: in vivo
DT-22 [19] = assay: Antitumor activity in human DT-22-Luc cells xenografted female NSG mouse assessed as reduction in tumor growth at 20 mg/kg, sc administered daily until day 20 and followed by 10 mg/kg every other day; type: functional, organism-based
[20] = molecular target: T1, Forkhead box protein M1 (Homo sapiens); assay: Inhibition of FOXM1 in human ER-positive MCF7 cells at 8 uM assessed as reduction in FOXM1C expression measured by qRT-PCR method; type: cell-based
[21] = molecular target: T1, Forkhead box protein M1 (Homo sapiens); assay: Inhibition of FOXM1 in human ER-negative DT-22 cells at 8 uM assessed as increase in ATF3 expression measured by qRT-PCR method; type: cell-based
[22] = molecular target: T1, Forkhead box protein M1 (Homo sapiens); assay: Inhibition of FOXM1 in human ER-positive MCF7 cells at 8 uM assessed as increase in ATF3 expression measured by qRT-PCR method; type: cell-based
[23] = Cmax in mouse at 20 mg/kg, sc measured by LC-MS/MS analysis; type: ADME, organism-based; design: route subcutaneous, dose 20 mg/kg; settings: in vivo
[24] = molecular target: T1, Forkhead box protein M1 (Homo sapiens); assay: Inhibition of FOXM1 in human ER-negative DT-22 cells at 8 uM assessed as reduction in FOXM1C expression measured by qRT-PCR method; type: cell-based
[25] = molecular target: T1, Forkhead box protein M1 (Homo sapiens); assay: Inhibition of FOXM1 in human ER-negative DT-22 cells at 8 uM assessed as reduction in PLK1 expression measured by qRT-PCR method; type: cell-based
[26] = molecular target: T1, Forkhead box protein M1 (Homo sapiens); assay: Inhibition of FOXM1 in human ER-positive MCF7 cells at 8 uM assessed as reduction in CCNB1 expression measured by qRT-PCR method; type: cell-based
[27] = Half-life in mouse at 20 mg/kg, sc measured by LC-MS/MS analysis; type: ADME, organism-based; settings: in vivo
[28] = molecular target: T1, Forkhead box protein M1 (Homo sapiens); assay: Inhibition of FOXM1 in human ER-negative DT-22 cells at 8 uM assessed as reduction in CCNB1 expression measured by qRT-PCR method; type: cell-based
[29] = molecular target: T1, Forkhead box protein M1 (Homo sapiens); assay: Inhibition of FOXM1 in human ER-positive MCF7 cells at 8 uM assessed as reduction in AURKB expression measured by qRT-PCR method; type: cell-based
[30] = molecular target: T1, Forkhead box protein M1 (Homo sapiens); assay: Inhibition of FOXM1 in human ER-positive MCF7 cells at 8 uM assessed as reduction in PLK1 expression measured by qRT-PCR method; type: cell-based
[31] = AUC in mouse at 20 mg/kg, sc measured by LC-MS/MS analysis; type: ADME, organism-based; design: dose 20 mg/kg; settings: in vivo
[32] = molecular target: T1, Forkhead box protein M1 (Homo sapiens); assay: Inhibition of FOXM1 in human ER-negative DT-22 cells at 8 uM assessed as reduction in AURKB expression measured by qRT-PCR method; type: cell-based
[33] = Half-life in female CD-1 mouse at 60 mg/kg, sc administered as single dose and measured by LC-MS/MS analysis; type: ADME, organism-based; settings: in vivo
DT-22 [34] = assay: Antitumor activity in human DT-22 cells xenografted NSG mouse assessed as reduction in FOXM1C expression at 5 to 10 mg/kg, sc administered daily until day 21 and then every other day; type: functional, organism-based; settings: dose 5-10 mg/kg
MCF-7/TAMR-1 = assay: Antiproliferative activity against human MCF-7/TAMR-1 cells measured by WST-1 assay; type: functional, cell-based
DT-22 [35] = assay: Antitumor activity in human DT-22 cells xenografted NSG mouse assessed as reduction in total FOXM1 expression at 5 to 10 mg/kg, sc administered daily until day 21 and then every other day; type: functional, organism-based; settings: dose 5-10 mg/kg
DT-22 [36] = assay: Antitumor activity in human DT-22 cells xenografted NSG mouse assessed as reduction in tumor growth at 5 to 10 mg/kg, sc administered daily until day 21 and then every other day; type: functional, organism-based; settings: dose 5-10 mg/kg
DT-22 [37] = assay: Antitumor activity in human DT-22 cells xenografted NSG mouse assessed as reduction in FOXM1B expression at 5 to 10 mg/kg, sc administered daily until day 21 and then every other day; type: functional, organism-based; settings: dose 5-10 mg/kg
DT-22 [38] = assay: Antitumor activity in human DT-22 cells xenografted NSG mouse assessed as reduction in CENPF expression at 5 to 10 mg/kg, sc administered daily until day 21 and then every other day; type: functional, organism-based; settings: dose 5-10 mg/kg

- half-life [6]: 61.8 h
Compound: CCN(CC)CCCCCCOc1ccc(C(c2ccc(OCCCCCCN(CC)CC)cc2)=C2[C@H]3C[C@@H]4C[C@@H](C[C@H]2C4)C3)cc1

- half-life [1]: 31.5 h
Compound: C[N+]1(CCCCCCOc2ccc(C(c3ccc(Cl)cc3)=C3C4C[C@H]5C[C@@H](C4)C[C@H]3C5)cc2)CCCC1.[I-]
- Activity [18]: Non-Toxic
- Activity (DT-22 [19]): Active

- half-life [33]: 45.6 h
Compound: CN1CCN(CCCCCCOc2ccc(C(=C3C4CC5CC(C4)CC3C5)c3ccc(OCCCCCCN4CCN(C)CC4)cc3)cc2)CC1

Further lines, the compound ahead of its results:

Compound: CC[N+](C)(CC)CCCCCCOc1ccc(C(c2ccc(OCCCCCC[N+](C)(CC)CC)cc2)=C2C3C[C@H]4C[C@@H](C3)C[C@H]2C4)cc1.[I-].[I-]
- half-life [1]: 38.6 h
- Activity (DT-22 [2]): Active
- Activity [3]: Non-Toxic

Compound: C[N+]1(CCCCCCOc2ccc(C(=C3C4CC5CC(C4)CC3C5)c3ccc(OCCCCCC[N+]4(C)CCCC4)cc3)cc2)CCCC1
- Activity (DT-22 [4]): Active

Compound: C[n+]1ccn(CCCCCCOc2ccc(C(=C3C4CC5CC(C4)CC3C5)c3ccc(Cl)cc3)cc2)c1.[I-]
- half-life [1]: 36.8 h
- AUC(0-t) at 48 h [5]: 150 µM·h

Compound: C[N+]1(CCCCCCOc2ccc(C(c3ccc(OCCCCCC[N+]4(C)CCCCC4)cc3)=C3C4C[C@H]5C[C@@H](C4)C[C@H]3C5)cc2)CCCCC1
- Activity (DT-22 [4]): Active

Compound: Clc1ccc(C(=C2C3CC4CC(C3)CC2C4)c2ccc(OCCCCCCN3CCCC3)cc2)cc1
- inhibition [7]: Active
- inhibition [8]: Active
- inhibition [9]: Active
- inhibition [10]: Active
- inhibition [11]: Active
- inhibition [12]: Active
- Activity (MCF7): Active
- half-life [1]: 26.7 h
- inhibition [13]: Active
- inhibition [14]: Active
- inhibition [15]: Active
- inhibition [16]: Active
- Activity (DT-22 [17]): Active

Compound: Nc1c(C(=O)Nc2ccc(F)cc2)sc2nc(-c3cccs3)cc(C(F)(F)F)c12
- inhibition [20]: Active
- inhibition [21]: Active
- inhibition [22]: Active
- Cmax [23]: 40 nM
- inhibition [24]: Active
- inhibition [25]: Active
- inhibition [26]: Active
- half-life [27]: 21.8 h
- inhibition [28]: Active
- inhibition [29]: Active
- inhibition [30]: Active
- AUC [31]: 1.2 µM·h
- inhibition [32]: Active

Compound: C[N+]1(CCCCCCOc2ccc(C(c3ccc(OCCCCCC[N+]4(C)CCCCCC4)cc3)=C3C4C[C@H]5C[C@@H](C4)C[C@H]3C5)cc2)CCCCCC1
- Activity (DT-22 [34]): Active
- Activity (MCF-7/TAMR-1): Active
- Activity (DT-22 [4]): Active
- Activity (DT-22 [35]): Active
- Activity (DT-22 [36]): Active
- Activity (DT-22 [37]): Active
- Activity (DT-22 [38]): Active
